Results taken from US20090227619A1, “Harmine derivatives, intermediates used in their preparations, preparation processes and use therefo” (priority 2003, published 2009).
Several values for one entry are separate records, joined by “and”; a condition that tells them apart may be missing. Equal entries are not always repeated. Where two headings read alike, the source gives them in different places.

Key:
Lovo = assay: In vitro cytotoxicity, IC50 by MTT method, Lovo; format: cell-based
Experimental: (§1) Culture medium powder RPMI1640 was dissolved in a proper amount of tri-distilled water according to the instruction of the product. […] It was the basic culture solution. The complete culture solution was added with FBS having a final concentration of 10%, 100 U/ml penicillin and 100 µg/ml streptomycin. The solution was fully stirred by a magnetic blender, and the pH of the solution was adjusted to 6.8-7.0. The volume was kept constant. After being filtered and disinfected, the solution was kept into several containers which were sealed and stored at 4° C.
(§2) The cells were placed in a culture dish followed by the addition of complete culture liquid RPMI1640 and then cultured in a incubator comprising 5% CO2 at 37° C. In the exponential growth phase, the cells grew vigorously. If the culture liquid became yellow, the liquid should be replaced instantly.
(§3) The cells, at a concentration of 10^5/ml, were inoculated at a 96-pore culture plate. In each pore, 100 μl cells were inoculated. The cells were placed in a CO2 incubator until the cells were in the logarithmic growth phase. The samples to be tested were added according to the preset concentration gradient. For each gradient, the test was conducted at least three times. An equivalent amount of solvent for dissolving the samples was added in the control group. After 48 h of culture, each pore was added 20 μl MTT (5 mg/ml). The cells were cultured at 37° C. for 4 h. After the supernatant was carefully removed, 100 μl DMSO was added in each pore. The plate was agitated for about 10 minutes such that the precipitates were dissolved. After that, OD value was identified with a Microplate Reader at the wavelength of 490 nm. The survival rate of the cells at various concentrations was calculated according to the following formula:
(§4) Survival rate %=average OD value of the sample group/average OD value of the control group×100%
(§5) Plots of log survival rate of the cells vs. concentration of the medicament were constructed, and the IC50 value of each sample was calculated according to graphing methods.

BGC-823 = assay: In vitro cytotoxicity, IC50 by MTT method, BGC-823; format: cell-based
Experimental: as §1, §2, §3, §4, §5

PLA-801 = assay: In vitro cytotoxicity, IC50 by MTT method, PLA-801; format: cell-based
Experimental: as §1, §2, §3, §4, §5

HepG2 = assay: In vitro cytotoxicity, IC50 by MTT method, HepG2; format: cell-based, human
Experimental: as §1, §2, §3, §4, §5

Hela = assay: In vitro cytotoxicity, IC50 by MTT method, Hela; format: cell-based
Experimental: as §1, §2, §3, §4, §5

Bel-7402 = assay: In vitro cytotoxicity, IC50 by MTT method, Bel-7402; format: cell-based
Experimental: as §1, §2, §3, §4, §5

NIH3T3 = assay: In vitro cytotoxicity, IC50 by MTT method, NIH3T3; format: cell-based
Experimental: as §1, §2, §3, §4, §5

Lewis lung cancer = details: Lewis lung cancer, listed as CTX;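 note: mice implanted subcutaneously in the axilla with Lewis lung tumor cells, treated starting the following day, killed roughly three weeks after implantation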
From the text: There was one group of 8 to 10 mice C57BL/6 and Kunming mice for the anti-tumor tests and two groups of mice for negative control.
(3) Sources of tumors: Lewis lung cancer cells and S180 sarcoma in mice, which were sub-cultured and maintained by Pharmacological Center of Shanghai Pharmaceutical Industrial Research Institute.
All samples were weighed and added a small amount of Tween-80 to facilitate dissolution during the experiment, and then 0.5% CMC-Na solution was gradually added to achieve the desired concentration. The volume for experiment was 0.5 ml/20 g mouse.
The medicaments were intraperitoneally administered once a day continuously for 10 days.
For the negative control group, a vehicle of the same volume was intraperitoneally administered once a day continuously for 10 days. For the positive control group, CTX was administered in the dosage of 30 mg/kg once a day continuously for 7 days.
In vivo anti-tumor subcutaneous vaccination in the axilla was employed. Wildly grown tumor source was taken under sterile conditions to form a cell suspension of about 1×10^7 ml by homogenization method. For a corresponding mouse host, the suspension was injected in the axilla in an amount of 0.2 ml/mouse. The next day, the medicaments were administered according to the design of the tests. About three weeks later, all the groups of animals were executed. The tumors were taken from the animals and weighed. The inhibition rate of tumors was calculated according to the following formula:
T: average tumor weight of treated group; C: average tumor weight of negative control group.

S180 sarcoma = details: S180 sarcoma, Dosage 30 (mg/ml), ip × 7qd, listed as CTX
[1] = Lovo cell strain, read-out: IC50 Lovo
[2] = BGC823 cell strain, read-out: IC50 BGC823
[3] = PLA-801 cell strain, read-out: IC50 PLA-801
[4] = HepG2 cell strain, read-out: IC50 HepG2
[5] = Hela cell strain, read-out: IC50 Hela
[6] = Bel7402 cell strain, read-out: IC50 Bel7402
[7] = NIH3T3 cell strain, read-out: IC50 NIH3T3

SMILES: Nc1cc2c(cn1)[nH]c1ccccc12 [Compound 21, 3-amino-β-carboline]
- IC50 (Lovo; Homo sapiens, Lovo, MTT, read-out: IC50): 240 µM
- IC50 (BGC-823; Homo sapiens, BGC-823, BGC823, MTT, read-out: IC50): 860 µM
- IC50 (PLA-801; PLA-801, MTT, read-out: IC50): 570 µM
- IC50 (HepG2; Homo sapiens, HepG2, MTT, read-out: IC50): 340 µM
- IC50 (Hela; Homo sapiens, Hela, MTT, read-out: IC50): 310 µM
- IC50 (Bel-7402; Homo sapiens, Bel-7402, BeI7402, MTT, read-out: IC50): 1570 µM
- IC50 (NIH3T3; Mus musculus, NIH3T3, MTT, read-out: IC50): 290 µM

SMILES: CCOC(=O)c1cc2c3ccccc3n(Cc3c(F)c(F)c(F)c(F)c3F)c2cn1 [Compound 46, ethyl 9-(2′,3′,4′,5′,6′-pentafluoro)benzyl-β-carboline-3-carboxylate]
- IC50 (Lovo; [1]): 40 µM
- IC50 (BGC-823; [2]): 50 µM
- IC50 (PLA-801; [3]): 50 µM
- IC50 (HepG2; [4]): 120 µM
- IC50 (Hela; [5]): 980 µM
- IC50 (Bel-7402; [6]): 10 µM
- IC50 (NIH3T3; [7]): 60 µM

SMILES: CCOC(=O)c1cc2c3ccccc3n(CC(=O)c3ccccc3)c2cn1 [Compound 47, ethyl 9-acetophenone-β-carboline-3-carboxylate]
- IC50 (Lovo; [1]): > 3000 µM
- IC50 (BGC-823; [2]): > 3000 µM
- IC50 (PLA-801; [3]): > 3000 µM
- IC50 (HepG2; [4]): > 3000 µM
- IC50 (Hela; [5]): > 3000 µM
- IC50 (Bel-7402; [6]): 1020 µM
- IC50 (NIH3T3; [7]): > 3000 µM

SMILES: CCn1c2ccccc2c2cc(C(=O)NN)ncc21 [Compound 51, 3-carbohydrazine 9-ethyl-β-carboline]
- IC50 (Lovo; [1]): 190 µM
- IC50 (BGC-823; [2]): 110 µM
- IC50 (PLA-801; [3]): 510 µM
- IC50 (HepG2; [4]): 260 µM
- IC50 (Hela; [5]): 240 µM
- IC50 (Bel-7402; [6]): 370 µM
- IC50 (NIH3T3; [7]): 510 µM

SMILES: NNC(=O)c1cc2c3ccccc3n(Cc3ccccc3)c2cn1 [Compound 52, 3-carbohydrazide-9-benzyl-β-carboline]
- IC50 (Lovo; [1]): 250 µM
- IC50 (BGC-823; [2]): 270 µM
- IC50 (PLA-801; [3]): 520 µM
- IC50 (HepG2; [4]): 140 µM
- IC50 (Hela; [5]): 250 µM
- IC50 (Bel-7402; [6]): 60 µM
- IC50 (NIH3T3; [7]): 220 µM

SMILES: CCOC(=O)c1cc2c3ccccc3n(CC(=O)c3ccccc3)c2c(C)n1 [Compound 61, ethyl 9-acetophenone-1-methyl-β-carboline-3-carboxylate]
- IC50 (Lovo; [1]): 50 µM
- IC50 (BGC-823; [2]): 90 µM
- IC50 (PLA-801; [3]): 160 µM
- IC50 (HepG2; [4]): 70 µM
- IC50 (Hela; [5]): 60 µM
- IC50 (Bel-7402; [6]): 460 µM
- IC50 (NIH3T3; [7]): 90 µM

SMILES: CCCc1nc(C(=O)O)cc2c3ccccc3n(CCCc3ccccc3)c12 [Compound 75, 9-phenylpropyl-1-propyl-β-carboline-3-carboxylic acid]
- IC50 (Lovo; Homo sapiens, Lovo cell strain, read-out: IC50 Lovo): 80 µM
- IC50 (BGC-823; Homo sapiens, BGC-823, BGC823 cell strain, read-out: IC50 BGC823): 240 µM
- IC50 (PLA-801; [3]): 230 µM
- IC50 (HepG2; Homo sapiens, HepG2 cell strain, read-out: IC50 HepG2): 130 µM
- IC50 (Hela; Homo sapiens, Hela cell strain, read-out: IC50 Hela): 140 µM
- IC50 (Bel-7402; Homo sapiens, Bel-7402, Bel7402 cell strain, read-out: IC50 Bel7402): 200 µM
- IC50 (NIH3T3; Mus musculus, NIH3T3 cell strain, read-out: IC50 NIH3T3): 110 µM

SMILES: CCOC(=O)c1cc2c3ccccc3n(Cc3ccccc3)c2c[n+]1Cc1ccccc1.[O-][I+2]([O-])[O-] [Compound 85, 2,9-dibenzyl-3-ethoxycarbonyl-β-carbolinium iodate]
- IC50 (Lovo; [1]): 30 µM
- IC50 (BGC-823; [2]): 40 µM
- IC50 (PLA-801; [3]): 30 µM
- IC50 (HepG2; [4]): 20 µM
- IC50 (Hela; [5]): 30 µM
- IC50 (Bel-7402; [6]): 40 µM
- IC50 (NIH3T3; [7]): 20 µM

SMILES: O=P1(N(CCCl)CCCl)NCCCO1 (centres unmarked) [cyclophosphamide, reference compound]
- Body weight of the animals, end, First time (Lewis lung cancer; Dosage 30 (mg/ml), Iv × 7qd, first time): 21.3 g and 20.2 g
- Body weight of the animals, end, Second time (Lewis lung cancer; Dosage 30 (mg/ml), Iv × 7qd, second time): 21.3 g and 21.0 g
- Body weight of the animals, beginning, First time (Lewis lung cancer; Dosage 30, Iv × 7qd, first time): 20.1 g and 18.8 g
- Body weight of the animals, beginning, Second time (Lewis lung cancer; Dosage 30, Iv × 7qd, second time): 18.9 g and 19.8 g
- Body weight of the animals, beginning, First time (S180 sarcoma; first time): 19.4 g and 18.7 g
- Body weight of the animals, end, First time (S180 sarcoma; first time): 20.9 g and 22.3 g
- Weight of the tumor X ± SD, First time (S180 sarcoma; first time): 0.33 ± 0.14 g and 0.33 ± 0.12 g
- Body weight of the animals, beginning, Second time (S180 sarcoma; second time): 19.8 g and 20.3 g
- Body weight of the animals, end, Second time (S180 sarcoma; second time): 23.2 g and 20.9 g
